Key:
[1] = Initial toxicologic studies, intravenous doses in mice; type: in vivo, mouse
[2] = system: CWR22R-H PSA-producing human prostate cancer xenograft; assay: Growth of subcutaneous CWR22R-H xenografts; details: 33 mg/kg/dose iv x 6 doses (46: equimolar doses); significant only at day 6
[3] = system: CWR22R-H PSA-producing human prostate cancer xenograft; assay: Serum free and total PSA per gram of tumor in CWR22R-H xenograft mice; type: in vivo; details: over the 10 day period between PSA measurements; 33 mg/kg/dose x 6
PSA [4] = target: T1, PSA (Homo sapiens, UniProt P07288); assay: PSA activity assay, inhibition kinetics by progress curves; type: biochemical
T1 sequence (P07288 25-261): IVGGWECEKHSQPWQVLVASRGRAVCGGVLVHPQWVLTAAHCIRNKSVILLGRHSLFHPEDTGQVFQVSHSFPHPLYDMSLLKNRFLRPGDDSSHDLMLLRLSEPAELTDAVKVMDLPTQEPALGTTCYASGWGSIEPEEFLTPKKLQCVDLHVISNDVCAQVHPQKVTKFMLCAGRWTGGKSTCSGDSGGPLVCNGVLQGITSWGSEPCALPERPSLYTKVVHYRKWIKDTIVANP

cathepsin D = cathepsin D (Bos taurus, UniProt P80209); assay: Protease specificity: Cathepsin D Assay Kit; type: biochemical; details: in words; over a range of concentrations
Sequence of cathepsin D (P80209 45-390): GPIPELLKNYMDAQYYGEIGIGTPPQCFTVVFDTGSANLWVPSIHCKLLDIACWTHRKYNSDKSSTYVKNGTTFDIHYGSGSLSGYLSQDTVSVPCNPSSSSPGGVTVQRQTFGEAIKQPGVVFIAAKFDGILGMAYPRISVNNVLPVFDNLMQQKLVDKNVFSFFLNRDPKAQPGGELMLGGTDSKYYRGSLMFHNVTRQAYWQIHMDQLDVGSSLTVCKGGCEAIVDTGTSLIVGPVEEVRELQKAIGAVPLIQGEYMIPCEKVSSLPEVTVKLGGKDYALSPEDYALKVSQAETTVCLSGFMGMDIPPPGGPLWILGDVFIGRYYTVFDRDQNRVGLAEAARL

cathepsin B = cathepsin B (Homo sapiens, UniProt P07858); assay: Protease specificity: cathepsin B + Z-RR-AMC; type: biochemical; details: in words; over a range of concentrations
[5] = system: PSA-positive LNCaP human prostate cancer cells; assay: Clonal survival assay, LNCaP; type: cell-based; details: compared to vehicle-treated control
PSA [6] = target: T1, PSA; details: 500 nM inhibitor, 37°C, western blot
[7] = system: PSA-negative TSU human bladder cancer cells; assay: Clonal survival assay, TSU; type: cell-based; details: under these same conditions (100 nM, 1 μM)
trypsin = assay: Protease specificity: trypsin + Bz-R-AMC; type: biochemical
PSA [8] = target: T1, PSA; details: 1.5 μM inhibitor, 2 nM PSA, 37°C, 1 hr
elastase = assay: Protease specificity: elastase + suc-AAPV-AMC; type: biochemical
chymotrypsin = assay: Protease specificity: chymotrypsin + suc-AAF-AMC; type: biochemical
[9] = target: dipeptidyl peptidase 4 (DPP-4) (Homo sapiens, UniProt P27487); assay: Protease specificity: DPP-4 + AP-AFC; type: biochemical
Sequence of dipeptidyl peptidase 4 (DPP-4) (P27487 whole entry, species assumed): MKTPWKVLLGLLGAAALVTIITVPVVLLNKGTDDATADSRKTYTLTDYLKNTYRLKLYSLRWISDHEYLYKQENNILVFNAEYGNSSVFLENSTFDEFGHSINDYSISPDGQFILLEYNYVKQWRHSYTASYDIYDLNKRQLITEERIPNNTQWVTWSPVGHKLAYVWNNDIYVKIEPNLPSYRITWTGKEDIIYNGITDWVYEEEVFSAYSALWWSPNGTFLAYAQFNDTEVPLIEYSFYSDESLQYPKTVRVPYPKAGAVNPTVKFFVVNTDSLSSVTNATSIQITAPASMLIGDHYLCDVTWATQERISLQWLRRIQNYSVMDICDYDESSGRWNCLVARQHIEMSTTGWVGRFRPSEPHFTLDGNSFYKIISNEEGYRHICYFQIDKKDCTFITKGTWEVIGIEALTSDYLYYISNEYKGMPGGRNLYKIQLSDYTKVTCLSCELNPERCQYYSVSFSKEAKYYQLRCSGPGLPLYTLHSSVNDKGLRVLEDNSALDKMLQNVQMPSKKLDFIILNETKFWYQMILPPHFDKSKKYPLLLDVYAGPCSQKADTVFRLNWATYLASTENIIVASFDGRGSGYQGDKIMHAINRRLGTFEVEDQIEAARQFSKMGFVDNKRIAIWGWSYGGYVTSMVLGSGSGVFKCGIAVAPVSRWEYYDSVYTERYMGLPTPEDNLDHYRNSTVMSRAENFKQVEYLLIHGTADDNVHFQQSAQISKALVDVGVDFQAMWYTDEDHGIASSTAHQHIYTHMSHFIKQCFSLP

[10] = system: LNCaP, LAPC-4, CWR22R, C4-2B, DU145, PC3 human prostate cancer cell lines; assay: MTT growth assay, panel of prostate cancer cell lines; type: cell-based; details: 100 nM; cells attached 24 hr before exposure
[11] = compared to full-length Z-SSKLL-H

Mu-SSKL(boro)L
effect on body weight ([1]; dose of 100 mg/kg, mice): transient weight loss | lethality (fraction of the mice) ([1]; dose of 300 mg/kg): one-third | effects on mouse body weight ([1]; repeat intravenous doses of 33 mg/kg): no significant effects | tolerability ([1]; repeat intravenous doses of 33 mg/kg, mice): well tolerated | effect on tumor volume / tumor growth compared to vehicle control [2]: slight decrease in tumor volume | increase of free PSA levels/gram of tumor [3]: 13% | increase of total PSA levels/gram of tumor [3]: 1.85 fold

Z-KL(boro)L [compound 36]
fold increase in Ki for PSA (PSA [4]; compared to Z-SSKL(boro)L): 90 fold

Z-KL(boro)Nle [compound 37]
fold increase in Ki for PSA (PSA [4]; compared to Z-SSKL(boro)Nle): 59 fold

Z-SKLL-H [compound 8]
fold higher Ki for PSA (PSA [4]; [11]): ~ 6.5 fold

Z-SSKIL-H [compound 4]
fold higher Ki for PSA (PSA [4]; [11]): ~ 6 fold

Z-SSKL(boro)L [compound 39]
inhibition of cathepsin D (cathepsin D): no inhibition | inhibition of cathepsin B (cathepsin B): no inhibition | inhibition of clonal survival ([5]; 100 nM): ~ 75% | inhibition of clonal survival ([5]; 1 μM): ~ 85% | protection of IGFBP3 from degradation by PSA (PSA [6]): protected IGFBP3 from degradation by PSA | inhibition of clonal survival [7]: ~ 25% | inhibition of trypsin (trypsin; in words): did not inhibit | Ki (trypsin; trypsin): > 100 µM | Selectivity (trypsin; trypsin relative to PSA inhibition): >1500 | PSA cleavage of the PTHrP peptide 1-34 (PSA [8]): completely inhibited | selectivity for PSA over elastase (elastase): 22 times | Ki (elastase; elastase): 1390 nM | Selectivity (elastase; elastase relative to PSA inhibition): 22 | inhibition of elastase (elastase; in words): Modest inhibition | fold higher Ki for chymotrypsin than for PSA (chymotrypsin): 60 fold | Ki (chymotrypsin; chymotrypsin): 3.9 µM | Selectivity (chymotrypsin; chymotrypsin relative to PSA inhibition): 60 | fold higher Ki for PSA (PSA [4]; compared to Z-SSL(boro)L): ~ 8 fold | Selectivity (PSA [4]; relative to PSA inhibition, PSA itself): 1 | Selectivity ([9]; DPPIV relative to PSA inhibition): >1500 | inhibition of DPP-4 ([9]; in words): did not inhibit | effect on growth of cell lines [10]: marginal effect

Z-SSKL(boro)Nle [compound 38]
fold increase in Ki for PSA (PSA [4]; compared to Z-SSKL(boro)L): ~ 5 fold

Z-SSKLL-CH2OH [compound 26]
inhibition of PSA (PSA [4]; in words): did not inhibit PSA

Z-SSKYL-H [compound 2]
fold higher Ki for PSA (PSA [4]; [11]): ~ 2 fold
